In patent publication US20220340597A1, “HEXAHYDRO-1H-PYRAZINO[1,2-A]PYRAZINE COMPOUNDS FOR THE TREATMENT OF AUTOIMMUNE DISEASE” (Hoffmann-La Roche Inc., priority 2019, published 2022) one finds IC50 data, which are given here for 18 compounds.

The structures appear in SMILES notation.

The test has as its target T1, human TLR7 (Homo sapiens, UniProt Q9NYK1).
T1 construct: host or cells: HEK293 (HEK-Blue hTLR7)
T1 sequence (Q9NYK1 27-1049): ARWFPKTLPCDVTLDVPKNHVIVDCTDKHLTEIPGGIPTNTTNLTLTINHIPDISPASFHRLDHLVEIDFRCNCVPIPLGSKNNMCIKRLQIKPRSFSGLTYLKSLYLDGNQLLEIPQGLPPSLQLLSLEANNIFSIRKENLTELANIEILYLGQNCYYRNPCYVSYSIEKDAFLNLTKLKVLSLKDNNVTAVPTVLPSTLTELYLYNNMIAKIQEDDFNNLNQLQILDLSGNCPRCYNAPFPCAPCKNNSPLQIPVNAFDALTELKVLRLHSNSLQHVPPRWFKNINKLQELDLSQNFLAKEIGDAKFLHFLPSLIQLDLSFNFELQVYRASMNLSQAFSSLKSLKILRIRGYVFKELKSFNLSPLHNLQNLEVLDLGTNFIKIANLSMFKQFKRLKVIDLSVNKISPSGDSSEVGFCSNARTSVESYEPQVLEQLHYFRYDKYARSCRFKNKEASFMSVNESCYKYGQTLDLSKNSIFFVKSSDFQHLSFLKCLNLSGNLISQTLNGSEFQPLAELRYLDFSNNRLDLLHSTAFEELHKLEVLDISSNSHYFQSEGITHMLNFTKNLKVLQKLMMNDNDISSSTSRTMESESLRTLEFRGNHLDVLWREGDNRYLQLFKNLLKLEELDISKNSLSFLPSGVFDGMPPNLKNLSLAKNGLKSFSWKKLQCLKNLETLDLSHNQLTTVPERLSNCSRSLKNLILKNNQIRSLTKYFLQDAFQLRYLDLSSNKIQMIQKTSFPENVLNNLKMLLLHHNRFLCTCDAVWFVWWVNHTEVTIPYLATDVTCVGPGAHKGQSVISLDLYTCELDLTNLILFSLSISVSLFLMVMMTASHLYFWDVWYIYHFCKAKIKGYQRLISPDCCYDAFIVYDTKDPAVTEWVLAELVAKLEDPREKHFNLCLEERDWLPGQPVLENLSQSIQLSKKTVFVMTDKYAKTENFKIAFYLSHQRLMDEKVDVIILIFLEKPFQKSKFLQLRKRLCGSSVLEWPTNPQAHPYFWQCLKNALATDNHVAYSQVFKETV
The test is described as follows: HEK293-Blue-hTLR-7 cells assay. It counts as cell-based. Particulars: HEK293-Blue-hTLR7 cells, R848 stimulation, 20 hrs, SEAP reporter; read-out: HEK/hTLR7 IC50. The procedure: The following tests were carried out in order to determine the activity of the compounds of formula (I) and (Ia) in HEK293-Blue-hTLR-7/8/9 cells assay.
HEK293-Blue-hTLR-7 cells assay:
A stable HEK293-Blue-hTLR-7 cell line was purchased from InvivoGen (Cat. #: hkb-htlr7, San Diego, Calif., USA). These cells were originally designed for studying the stimulation of human TLR7 by monitoring the activation of NF-κB. A SEAP (secreted embryonic alkaline phosphatase) reporter gene was placed under the control of the […] minimal promoter fused to five NF-κB and AP-1-binding sites. The SEAP was induced by activating NF-κB and AP-1 via stimulating HEK-Blue hTLR7 cells with TLR7 ligands. Therefore, the reporter expression was declined by TLR7 antagonist under the stimulation of a ligand, such as R848 (Resiquimod), for incubation of 20 hrs. The cell culture supernatant SEAP reporter activity was determined using QUANTI-Blue™ kit (Cat. #: rep-qb1, Invivogen, San Diego, Calif., USA) at a wavelength of 640 nm, a detection medium that turns purple or blue in the presence of alkaline phosphatase.
Then 20 μL of the supernatant from each well was incubated with […] Quanti-blue substrate solution at 37° C. for 2 hrs and the absorbance was read at 620-655 nm using a spectrophotometer. The signaling pathway that TLR7 activation leads to downstream NF-κB activation has been widely accepted, and therefore similar reporter assay was modified for evaluating TLR7 antagonist.
As to `[2H]c1ccc2c(N3C[C@@H]4CN(c5ccc(CCN6C[C@@H](N)[C@@H](F)C6)nc5)CCN4[C@@H](C)C3)ccc(C#N)c2n1` [Example 117, 5-[(4S,9aR)-8-[6-[2-[(3R,4S)-3-amino-4-fluoro-pyrrolidin-1-yl]ethyl]-3-pyridyl]-4-methyl-3,4,6,7,9,9a-hexahydro-1H-pyrazino[1,2-a]pyrazin-2-yl]-2-deuterio-quinoline-8-carbonitrile], the IC50 turned out to be 0.023 µM.

Consider `[2H]c1ccc2c(N3C[C@@H]4CN(c5ccc(CN6C[C@@H](N)[C@H](OC)C6)c(C)n5)CCN4[C@@H](C)C3)ccc(C#N)c2n1` [Example 123, 5-[(4S,9aR)-8-[5-[[(3R,4R)-3-amino-4-methoxy-pyrrolidin-1-yl]methyl]-6-methyl-2-pyridyl]-4-methyl-3,4,6,7,9,9a-hexahydro-1H-pyrazino[1,2-a]pyrazin-2-yl]-2-deuterio-quinoline-8-carbonitrile], for which the IC50 worked out at 0.027 µM.

`C[C@@H]1CN(c2ccc(C#N)c3ncccc23)C[C@@H]2CN(c3ccnc(N4CCNCC4)c3)CCN21` [Example 32, 5-[(4R,9aS)-4-methyl-8-(2-piperazin-1-yl-4-pyridyl)-3,4,6,7,9,9a-hexahydro-1H-pyrazino[1,2-a]pyrazin-2-yl]quinoline-8-carbonitrile]: the IC50 was determined as 0.016 µM.

Consider `C[C@@H]1CN(c2ccc(C#N)c3ncccc23)C[C@@H]2CN(c3nccc4c3CCNC4)CCN21` [Example 16, 5-[(4R,9aR)-4-methyl-8-(5,6,7,8-tetrahydro-2,6-naphthyridin-1-yl)-3,4,6,7,9,9a-hexahydro-1H-pyrazino[1,2-a]pyrazin-2-yl]quinoline-8-carbonitrile], for which the IC50 is 0.006 µM.

Take `C[C@@H]1CN(c2ccc(C#N)c3ncccc23)C[C@@H]2CN(c3ccnc(N4C[C@@H](F)[C@@H](N)C4)c3)CCN21` [Example 40, 5-[(4R,9aS)-8-[2-[(3S,4R)-3-amino-4-fluoro-pyrrolidin-1-yl]-4-pyridyl]-4-methyl-3,4,6,7,9,9a-hexahydro-1H-pyrazino[1,2-a]pyrazin-2-yl]quinoline-8-carbonitrile]: the IC50 was 0.007 µM.

In the case of `C[C@@H]1CN(c2ccc(C#N)c3ncccc23)C[C@@H]2CN(c3ccnc(N4CCOC[C@H](N)C4)c3)CCN21` [Example 54, 5-[(4R,9aS)-8-[2-[(6R)-6-amino-1,4-oxazepan-4-yl]-4-pyridyl]-4-methyl-3,4,6,7,9,9a-hexahydro-1H-pyrazino[1,2-a]pyrazin-2-yl]quinoline-8-carbonitrile], the IC50 stood at 0.023 µM.

For the compound `C[C@@H]1CN(c2ccc(C#N)c3ncccc23)C[C@@H]2CN(Cc3cccc(N4CCNCC4)n3)CCN21` [Example 27, 5-[(4R,9aS)-4-methyl-8-[(6-piperazin-1-yl-2-pyridyl)methyl]-3,4,6,7,9,9a-hexahydro-1H-pyrazino[1,2-a]pyrazin-2-yl]quinoline-8-carbonitrile], the IC50 is 0.021 µM.

As for `N#Cc1ccc(N2CCN3CCN(c4cccc5c4CNC5)CC3C2)c2cccnc12` (stereo not drawn) [Example 35, 5-(8-isoindolin-4-yl-3,4,6,7,9,9a-hexahydro-1H-pyrazino[1,2-a]pyrazin-2-yl)quinoline-8-carbonitrile], the IC50 is 0.029 µM.

In the case of `C[C@@H]1CN(c2ccc(C#N)c3ncccc23)C[C@@H]2CN(CCc3ccc(N4CCNCC4)cc3)CCN21` [Example 7, 5-[(4R,9aS)-4-methyl-8-[2-(4-piperazin-1-ylphenyl)ethyl]-3,4,6,7,9,9a-hexahydro-1H-pyrazino[1,2-a]pyrazin-2-yl]quinoline-8-carbonitrile], the IC50 stood at 0.005 µM.

`Cc1cnc(N2CCN3[C@@H](C2)CN(c2ccc(C#N)c4ncccc24)C[C@H]3C)nc1N1CCNCC1` [Example 43, 5-[(4R,9aR)-4-methyl-8-(5-methyl-4-piperazin-1-yl-pyrimidin-2-yl)-3,4,6,7,9,9a-hexahydro-1H-pyrazino[1,2-a]pyrazin-2-yl]quinoline-8-carbonitrile]: the IC50 is 0.009 µM.

Consider `C[C@@H]1CN(c2ccc(C#N)c3ncccc23)C[C@@H]2CN(CCc3cccc(N4CCN[C@@H](C)C4)n3)CCN21` [Example 21, 5-[(4R,9aS)-4-methyl-8-[2-[6-[(3S)-3-methylpiperazin-1-yl]-2-pyridyl]ethyl]-3,4,6,7,9,9a-hexahydro-1H-pyrazino[1,2-a]pyrazin-2-yl]quinoline-8-carbonitrile], for which the IC50 was 0.019 µM.

With `[2H]c1ccc2c(N3C[C@@H]4CN(c5ncc(N6C[C@H]7NCCO[C@@H]7C6)cc5C)CCN4[C@@H](C)C3)ccc(C#N)c2n1` [Example 114, 5-[(4S,9aR)-8-[5-[(4aR,7aR)-3,4,4a,5,7,7a-hexahydro-2H-pyrrolo[3,4-b][1,4]oxazin-6-yl]-3-methyl-2-pyridyl]-4-methyl-3,4,6,7,9,9a-hexahydro-1H-pyrazino[1,2-a]pyrazin-2-yl]-2-deuterio-quinoline-8-carbonitrile], the IC50 was 0.002 µM.

On to `Cc1nc(N2CCNCC2)ccc1CN1CCN2[C@@H](C1)CN(c1ccc(C#N)c3ncccc13)C[C@H]2C` [Example 60, 5-[(4R,9aS)-4-methyl-8-[(2-methyl-6-piperazin-1-yl-3-pyridyl)methyl]-3,4,6,7,9,9a-hexahydro-1H-pyrazino[1,2-a]pyrazin-2-yl]quinoline-8-carbonitrile], for which the IC50 amounted to 0.008 µM.

`CO[C@H]1CN(c2ccc(CCN3CCN4[C@@H](C3)CN(c3ccc(C#N)c5ncccc35)C[C@H]4C)cn2)C[C@H]1N` [Example 24, 5-[(4R,9aS)-8-[2-[6-[(3R,4S)-3-amino-4-methoxy-pyrrolidin-1-yl]-3-pyridyl]ethyl]-4-methyl-3,4,6,7,9,9a-hexahydro-1H-pyrazino[1,2-a]pyrazin-2-yl]quinoline-8-carbonitrile]: the IC50 was determined as 0.008 µM.

On to `CO[C@@H]1CN(c2ccc(CCN3CCN4[C@@H](C3)CN(c3ccc(C#N)n5ncc(F)c35)C[C@H]4C)cc2)C[C@H]1N` [Example 66, 4-[(4R,9aS)-8-[2-[4-[(3R,4R)-3-amino-4-methoxy-pyrrolidin-1-yl]phenyl]ethyl]-4-methyl-3,4,6,7,9,9a-hexahydro-1H-pyrazino[1,2-a]pyrazin-2-yl]-3-fluoro-pyrazolo[1,5-a]pyridine-7-carbonitrile], for which the IC50 amounted to 0.062 µM.

`C[C@@H]1CN(c2ccc(C#N)c3ncccc23)C[C@@H]2CN(Cc3cccc4c3CCNC4)CCN21` [Example 70, 5-[(4R,9aS)-4-methyl-8-(1,2,3,4-tetrahydroisoquinolin-5-ylmethyl)-3,4,6,7,9,9a-hexahydro-1H-pyrazino[1,2-a]pyrazin-2-yl]quinoline-8-carbonitrile]: the IC50 came to 0.011 µM.

`C[C@@H]1CN(c2ccc(C#N)c3ncccc23)C[C@@H]2CN(Cc3cccc4c3CNC4)CCN21` [Example 72, 5-[(4R,9aS)-8-(isoindolin-4-ylmethyl)-4-methyl-3,4,6,7,9,9a-hexahydro-1H-pyrazino[1,2-a]pyrazin-2-yl]quinoline-8-carbonitrile]: the IC50 stood at 0.012 µM.

As for `Cc1nc(N2CC(C)(N)C2)ccc1CN1CCN2[C@@H](C1)CN(c1ccc(C#N)c3ncccc13)C[C@H]2C` [Example 76, 5-[(4R,9aS)-8-[[6-(3-amino-3-methyl-azetidin-1-yl)-2-methyl-3-pyridyl]methyl]-4-methyl-3,4,6,7,9,9a-hexahydro-1H-pyrazino[1,2-a]pyrazin-2-yl]quinoline-8-carbonitrile], the IC50 came to 0.016 µM.
